The target of data set [1] is T1, protein tyrosine phosphatase 1B (PTP1B) (Homo sapiens, UniProt P18031).
T1 sequence (P18031 1-435): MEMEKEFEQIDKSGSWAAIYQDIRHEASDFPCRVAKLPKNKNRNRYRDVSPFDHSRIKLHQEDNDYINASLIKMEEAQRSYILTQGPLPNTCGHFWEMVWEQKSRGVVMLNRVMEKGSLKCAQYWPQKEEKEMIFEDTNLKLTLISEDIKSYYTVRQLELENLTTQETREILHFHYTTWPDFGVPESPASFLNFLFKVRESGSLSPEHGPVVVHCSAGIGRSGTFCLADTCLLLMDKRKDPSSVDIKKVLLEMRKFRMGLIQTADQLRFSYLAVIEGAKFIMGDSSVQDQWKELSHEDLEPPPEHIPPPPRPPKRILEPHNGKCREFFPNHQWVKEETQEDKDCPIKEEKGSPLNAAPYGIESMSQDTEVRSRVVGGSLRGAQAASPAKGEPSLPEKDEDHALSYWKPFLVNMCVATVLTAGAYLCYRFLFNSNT
Nature of the data set: PTP1B inhibitory assay (pNPP hydrolysis). The data set is classed as biochemical. As to conditions: pNPP substrate, pH 6.0, 37 °C, 30 min. The procedure:
Protein tyrosine phosphatase 1B (PTP1B) inhibitory activity was determined by measuring the rate of hydrolysis of a substrate, p-nitrophenyl phosphate (pNPP, Sigma, St. Louis, MO, USA) according to the published method with a slight modification. Briefly, PTP1B (100 μL of 0.5 μg/mL stock solution, Enzo Life Sciences, Farmingdale, NY, USA) in 50 mM citrate buffer (pH 6.0) containing 0.1 M NaCl, 1 mM dithiothreitol (DTT), and 1 mM N,N,N′,N′-ethylenediamine tetraacetate (EDTA) were added to each well of a 96-well plastic plate (Corning Inc., Corning, NY, USA). […] The reaction was initiated by the addition of pNPP (100 μL of 4.0 mM stock solution) in the citrate buffer, incubated at 37 °C for 30 min, and terminated with the addition of 10 μL of a stop solution (10 M NaOH). The optical density of each well was measured at 405 nm using an MTP-500 microplate reader (Corona Electric Co., Ltd., Ibaraki, Japan). PTP1B inhibitory activity (%) is defined as [1 − (ABSsample − ABSblank)/(ABScontrol − ABSblank)] × 100, where ABSblank is the absorbance of wells containing only the buffer and pNPP, ABScontrol is the absorbance of p-nitrophenol liberated by the enzyme in the assay system without a test sample, and ABSsample is that with a test sample. The assays were performed in two duplicate experiments for all test samples. Oleanolic acid (Tokyo Chemical Industry, Tokyo, Japan), a known phosphatase inhibitor [15], was used as a positive control.

A short description of data set [2]: in vitro. The format is cell-based. The following applies: human. The procedure: Cytotoxic activity against Huh-7 cells was assessed by the MTT assay, a modification of our previously described method. Following the treatment of cells with test samples, 10 μL of MTT (5.0 mg/mL saline) was added to each well, the samples were incubated for 90 min at 37 °C and centrifuged (300g for 5 min), and the supernatant was aspirated off. The cells were lysed and solubilized by the addition of 100 μL of 0.040 N HCl in 2-propanol. The absorbance of each well was determined at 590 nm using an Inter-med model NJ-2300 Microplate Reader (Cosmo Bio Co., Ltd., Tokyo, Japan). Survival (%) was calculated relative to the control.

Data set [3] can be described thus: in vitro. As to conditions: human. The data set is classed as cell-based. As to the method:
(§1) HCT-15 and Jurkat cells were obtained from the Center for Biomedical Research, Institute of Development, Aging, and Cancer, Tohoku University (Miyagi, Japan). The cell lines were cultured in RPMI-1640 medium. The medium was supplemented with 10 % fetal bovine serum, 100 U/mL penicillin, and 100 μg/mL streptomycin. Exponentially growing cells, cultured in a humidified chamber at 37 °C containing 5.0 % CO2, were used for the experiments. Cytotoxic activity was evaluated using the colorimetric MTT assay. HCT-15 (1.0 × 10^4 cells in 100 μL) or Jurkat cells (2.0 × 10^4 cells in 100 μL) were added to each well of a 96-well plastic plate. A sample (1.0 μL in MeOH) was added to each well to make the final concentrations from 0 to 39–47 μM, and the cells were incubated for 48 h at 37 °C. MTT (10 μL of 5.5 mg/mL stock solution) and a cell lysate solution (90 μL, 40 % N,N-dimethylformamide, 20 % sodium dodecyl sulfate, 2.0 % CH3COOH and 0.030 % HCl) were added to each well, and the plate was shaken thoroughly by agitation at room temperature for overnight. The optical density of each well was measured at 570 nm using an MTP-500 microplate reader.
This is another data set of the same source.

A short description of data set [4]: in vitro. The data set is classed as cell-based. As to conditions: human. The procedure: as §1
This is another data set of the same source.

The structures appear in SMILES notation. A value given as a limit tells only on which side of the number the result lay.

Consider `COc1c(Br)cc(Br)cc1Oc1c(O)cc(Br)cc1Br` [Compound 1, 2-(3′,5′-dibromo-2′-methoxyphenoxy)-3,5-dibromophenol], for which the IC50 (usually the concentration needed to halve the response being measured) in data set [1] is 850 nM; in data set [2] it was 32000 nM.
As for `COc1cc(Br)cc(Br)c1Oc1cc(Br)cc(Br)c1OC` [Compound 2, 3,5-dibromo-2-(3′,5′-dibromo-2′-methoxyphenoxy)-1-methoxybenzene], the IC50 in data set [1] turned out to be 1700 nM; in data set [2], 48000 nM. In addition, the IC50 at 48 h in data set [3] and in data set [4] was greater than 46000 nM in each case.
Turning to `COc1c(Br)cc(Br)cc1Oc1c(Br)cc(Br)cc1OC(C)=O` [Compound 3, 3,5-dibromo-2-(3′,5′-dibromo-2′-methoxyphenoxy)phenyl ethanoate], the IC50 in data set [1] turned out to be 620 nM.
In turn, `CCCC(=O)Oc1cc(Br)cc(Br)c1Oc1cc(Br)cc(Br)c1OC` [Compound 4, 3,5-Dibromo-2-(3′,5′-dibromo-2′-methoxyphenoxy)phenyl butanoate] yielded an IC50 in data set [1] of 680 nM.
`CCCCCC(=O)Oc1cc(Br)cc(Br)c1Oc1cc(Br)cc(Br)c1OC` [Compound 5, 3,5-Dibromo-2-(3′,5′-dibromo-2′-methoxyphenoxy)phenyl hexanoate] displayed an IC50 in data set [1] of 690 nM.
Same read-out and setting: the result for `COc1c(Br)cc(Br)cc1Oc1c(Br)cc(Br)cc1OC(=O)c1ccccc1` [Compound 6, 3,5-Dibromo-2-(3′,5′-dibromo-2′-methoxyphenoxy)phenyl benzoate] reads 970 nM.

(Values after article PMC3765847, “A polybromodiphenyl ether from an Indonesian marine sponge Lamellodysideaherbacea and its chemical derivatives inhibit protein tyrosine phosphatase 1B, an important target for diabetes treatment” (Journal of Natural Medicines, 2012).)
